The test system of one data set is HepG2 cells. The data set is described as follows: CCK-8 cytotoxicity assay, HepG2. The class given is cell-based. How it is done:
Cytotoxicity was determined using a cell counting kit-8 assay (CCK-8, US EVERBRIGHT, Suzhou, China), as described previously ([Xiao et al., 2018]). HEK293 or HepG2 cells were seeded in 96-well plates (Corning, United States) at a density of 5 × 10^4 cells/well, then incubated at 37°C in an atmosphere containing 5% CO2 for 24 h. The culture medium was then exchanged with fresh medium containing different concentrations of Tax (0–200 μM) or vehicle and incubated for an additional 24 h. CCK-8 solution (10 μL) was carefully added then incubated for 4 h in an incubator at 37°C. The OD value at 450 nm was measured to calculate cell viability.
FIGURE 2 Growth curve and cytotoxicity. (A) Growth curves of S. aureus USA300 and the ΔsrtA group with different concentrations of Tax. (B) Growth rate of S. aureus USA300 and S. aureus treated with Tax (25 μM). (C) Percent cell viability of HEK293 (purple) and HepG2 (blue) cells were measured using a CCK-8 assay after incubation with Tax for 24 h.
On the technique in general: Tetrazolium dyes change colour on reduction, which living cells bring about.

The subject of data set [1] is adhesion of S. aureus USA300 to fibrinogen. The data set is described as follows: Fibrinogen binding assay (crystal violet). The class given is cell-based. The following applies: Staphylococcus aureus, USA300, read-out: inhibition rate of adhesion of bacteria to fibrinogen.
Data set [2] has as its system S. aureus mature biofilms. Description: Mature biofilm assay (crystal violet). The format is cell-based, Staphylococcus aureus. Particulars: 25–200 μM Tax, 24 h. How it is done: S. aureus biofilms were formed for 24 h at 37°C on the surfaces of the wells of a 96-well plate. Following biofilm formation, different Tax concentrations (25–200 μM) were added to selected wells and the plates were incubated for 24 h at 37°C. The effects of Tax on the mature biofilms were estimated using the crystal violet stain and recorded by a microplate reader.
FIGURE 3 Effect of SrtA inhibitor on virulence-related phenotypes in S. aureus Newman strain. (A) Impact of Tax on the ability of S. aureus to adhere to fibrinogen. (B) Biofilm formation of S. aureus in the presence of different concentrations of Tax. (C) Mature biofilms of S. aureus in the presence of different concentrations of Tax. The ΔsrtA group represented the positive control. (D) Tax affects internalization of S. aureus into A549 cells. A549 cells were infected with S. aureus pretreated with different concentrations of Tax then lysed 2 h post-infection. The number of viable S. aureus in the cells was quantified by serial dilution on TSA agar plates. (E) Effects of Tax on S. aureus protein A (SpA) using FITC-labeled rabbit IgG. Error bars represent means ± SD of three replicates. *P < 0.05, **P < 0.01, ***P < 0.001 calculated with a two-tailed Student’s t-test.

The test system of data set [3] is SrtA expression in S. aureus. The data set is described as follows: Western blot analysis of SrtA expression. The class given is cell-based, Staphylococcus aureus. The following applies: 25–200 μM Tax, compared with the untreated group. As for the experimental part: To evaluate the effect of Tax on SrtA expression, Tax (25–200 μM) was added to different bacterial cultures and incubated overnight at 37°C. Equal quantities of total protein from the bacterial lysates were separated by 12% SDS-PAGE then transferred to a polyvinylidene fluoride (PVDF) membrane using a transblot semidry system. Non-specific binding to the PVDF membrane was prevented by incubating in 5% bovine serum albumin (BSA) overnight at 4°C. The membranes were washed three times with PBST, agitating each time for 5 min, then incubated with rabbit polyclonal antibody (created in the laboratory) against SrtA. Following a further washing in PBST three times, the membranes were incubated with HRP-labeled goat anti-rabbit IgG (Bioworld, China) diluted 1:10,000 in antibody diluent (PBST + 1% BSA) at 37°C for 1 h. ΔsrtA or S. aureus USA300 without Tax was considered the control group. The cytoplasmic protein ClpP was analyzed as an internal control. Blots were visualized using an enhanced chemiluminescence (ECL) detection system (GE Healthcare, United Kingdom), while bands were quantified using ImageQuant TL software (GE Healthcare).
FIGURE 4 Expression of SrtA in the presence of Tax and the interaction of different concentrations of Tax with SrtA. […] Error bars represent means ± SD of three replicates. ***P < 0.001 calculated with a two-tailed Student’s t-test.

For a further data set, the target named is T1, WT-SrtA (Staphylococcus aureus, UniProt Q2FV99).
T1 construct: 6xHis; made in house; host or cells: E. coli BL21 (DE3), plasmid pET28a-SrtA
Description: Fluorescence quenching assay, WT-SrtA. The class given is binding. The source says:
(§1) Molecular modeling studies highlight the benefits of performing site-directed mutagenesis studies. Therefore, fluorescence quenching experiments were utilized to determine the binding affinity of Tax with SrtA and SrtA mutants (D170A, Q172A).

A further data set concerns the target T2, D170A-SrtA mutant (Staphylococcus aureus, UniProt Q2FV99, D170A).
T2 construct: 6xHis; made in house; host or cells: E. coli BL21 (DE3), mutated pET28a-SrtA
The data set is described as follows: Fluorescence quenching assay, D170A-SrtA. The class given is binding. How it is done:
(§2) Site-directed mutagenesis for D170A-SrtA and Q172A-SrtA was performed based on plasmid pET28a-SrtA using a multi-site mutagenesis kit (Transgen, Beijing, China) and the desired mutation was verified via DNA sequencing by Sangon Biotech (Shanghai, China). Subsequently, recombinant SrtA and the SrtA mutant proteins (D170A and Q172A) were expressed and purified in accordance with a previously published procedure ([Zhulenkovs et al., 2014]). Briefly, bacteria were cultured until an OD600 value of 0.8 was achieved, after which 0.5 mM isopropyl-β-D-thiogalactopyranoside (IPTG) was added to induce recombination of SrtA at 16°C overnight. Because the recombinant protein had 6 × His tags, it was purified using a nickel-nitrilotriacetic acid (Ni-NTA) purification system. Imidazole (10 mM) was used to wash away excess protein, while 400 mM imidazole was employed to elute the target protein.
as §1

A further data set has as its target T3, Q172A-SrtA mutant (Staphylococcus aureus, UniProt Q2FV99, Q172A).
T3 construct: 6xHis; made in house; host or cells: E. coli BL21 (DE3), mutated pET28a-SrtA
Description: Fluorescence quenching assay, Q172A-SrtA. The format is binding. How it is done: as §2, §1

SMILES strings stand for the structures.

As a reminder, the inhibition is the change of the read-out against control, counted positive when it falls. By Kd is commonly meant a measure of binding affinity in units of concentration.

Take `O=C1c2c(O)cc(O)cc2OC(c2ccc(O)c(O)c2)C1O` (centres unmarked) [Tax, taxifolin]: the “toxicity toward mammalian cells (HepG2)” value in the data set on HepG2 cells (200 μM) is “did not display toxicity”. Also, the “cytotoxicity toward HepG2 cells” value with HepG2 cells (at 24.53 ± 0.42 μM, 24 h) is recorded as “no significant cytotoxicity”. For the same compound, the inhibition at 200 µM in data set [1] stood at 35.1 ± 0.49%. Besides, in data set [2], the “effect on mature biofilms” value is on record as “had no effect”. Further, the “effect on SrtA expression” value in data set [3] is on record as “no apparent effect”. For the same compound, the equilibrium dissociation constant (Kd) is 15.6 µM on WT-SrtA, 37.2 µM at D170A-SrtA mutant and 26 µM at Q172A-SrtA mutant.

The record behind these values is PMC8290497, “Taxifolin, an Inhibitor of Sortase A, Interferes With the Adhesion of Methicillin-Resistant Staphylococcal aureus” (Frontiers in Microbiology, 2021).
